From patent US8741931B2, “Kinase inhibitors” (priority 2007, dated 2014)

These compounds were tested against PKC delta kinase (Homo sapiens, UniProt Q05655) (assay: PKC Delta (coupled enzyme assay)). Settings: not given.
Chain of PKC delta kinase (Q05655 whole entry): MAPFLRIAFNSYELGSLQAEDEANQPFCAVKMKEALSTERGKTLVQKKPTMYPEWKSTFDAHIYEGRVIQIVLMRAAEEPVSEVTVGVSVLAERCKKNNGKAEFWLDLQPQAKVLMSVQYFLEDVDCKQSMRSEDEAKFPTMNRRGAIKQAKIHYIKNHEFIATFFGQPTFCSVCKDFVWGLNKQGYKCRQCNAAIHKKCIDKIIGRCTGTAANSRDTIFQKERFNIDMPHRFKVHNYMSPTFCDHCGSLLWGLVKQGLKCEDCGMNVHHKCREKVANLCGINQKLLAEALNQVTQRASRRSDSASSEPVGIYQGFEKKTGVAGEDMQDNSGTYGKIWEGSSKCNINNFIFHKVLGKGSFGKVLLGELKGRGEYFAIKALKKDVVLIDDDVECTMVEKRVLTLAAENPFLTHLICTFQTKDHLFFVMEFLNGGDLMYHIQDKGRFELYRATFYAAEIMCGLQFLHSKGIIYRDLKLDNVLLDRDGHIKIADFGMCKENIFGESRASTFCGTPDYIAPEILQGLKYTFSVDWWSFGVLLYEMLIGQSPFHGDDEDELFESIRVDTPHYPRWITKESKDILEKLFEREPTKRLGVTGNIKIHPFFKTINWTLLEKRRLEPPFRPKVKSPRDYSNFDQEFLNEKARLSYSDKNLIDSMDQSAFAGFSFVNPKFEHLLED
Type: biochemical
Protocol: (§1) An assay buffer solution was prepared which consisted of 100 mM HEPES (pH 7.5), 10 mM MgCl2, 25 mM NaCl, 0.1 mM EDTA and 0.01% Brij. […] To 16 μL of this enzyme buffer, in a 384 well plate, was added 1 μL of VRT stock solution in DMSO. The mixture was allowed to equilibrate for 10 mins at 30° C. […] Ki values were calculated from initial rate data by non-linear regression using the Prism software package (Prism 4.0a, Graphpad Software, San Diego, Calif.).
CN1CCCN(c2cccc(C(=O)c3cccnc3N)n2)CC1 [compound 82] gave a Ki of 500 to 2800 nM.

Same assay, conditions: 150 μM ATP, 46 nM PKC delta; read-out: Ki PKC delta
With CCC(=O)N1CCCN(c2cccc(C(=O)c3cccnc3N)n2)CC1 [compound 20] the Ki was 500 to 2800 nM.
Compound Nc1ncccc1C(=O)c1cccc(N2CCCN(C(=O)CC(F)(F)F)CC2)n1 [compound 23] has a Ki of 50 to 500 nM.
In the case of Cc1ccsc1C(=O)N1CCCN(c2cccc(C(=O)c3cccnc3N)n2)CC1 [compound 27], the Ki is reported as 500 to 2800 nM.
Nc1ncc(Br)cc1C(=O)c1cccc(N2CCCN(C(=O)Cc3cccc(O)c3)CC2)n1 [compound 70] was tested, and the Ki was 500 to 2800 nM.
With CC(C)C(=O)N1CCCN(c2cccc(C(=O)c3cc(Br)cnc3N)n2)CC1 [compound 71] the Ki was 500 to 2800 nM.
Compound CC(C)(C)CCN1CCCN(c2cccc(C(=O)c3cc(Br)cnc3N)n2)CC1 [compound 76] has a Ki of 500 to 2800 nM.
Compound Cc1ccccc1C(=O)N1CCCN(c2cccc(C(=O)c3cccnc3N)n2)CC1 [compound 89] has a Ki of over 2800 nM.
CC1CCCCC1C(=O)N1CCCN(c2cccc(C(=O)c3cccnc3N)n2)CC1 (centres unmarked) [compound 93] was tested, and the Ki was over 2800 nM.
CCc1cnc(N)c(C(=O)c2cccc(N3CCCNCC3)n2)c1 [compound 105] showed a Ki of 50 to 500 nM.
For Cc1ccsc1CN1CCCN(c2cccc(C(=O)c3cccnc3N)n2)CC1 [compound 106], the Ki was 500 to 2800 nM.
In the case of Nc1ncc(Br)cc1C(=O)c1cccc(N2CCCN(CC3CC3)CC2)n1 [compound 113], the Ki is reported as 50 to 500 nM.
CCN1CCCN(c2cccc(C(=O)c3cc(Br)cnc3N)n2)CC1 [compound 115] was tested, and the Ki was 50 to 500 nM.
CC(C)N1CCCN(c2cccc(C(=O)c3cccnc3N)n2)CC1 [compound 116] showed a Ki of 50 to 500 nM.
For Nc1ncccc1C(=O)c1cccc(N2CCCN(CC3CC3)CC2)n1 [compound 117], the Ki was 50 to 500 nM.
Nc1ncccc1C(=O)c1cccc(N2CCCN(CCc3ccccc3)CC2)n1 [compound 120] gave a Ki of 500 to 2800 nM.
Nc1ncc(Br)cc1C(=O)c1cccc(N2CCC(N3CCCC3)CC2)n1 [compound 121] gave a Ki of 50 to 500 nM.
CC(C)(C)CN1CCCN(c2cccc(C(=O)c3cccnc3N)n2)CC1 [compound 126] gave a Ki of 500 to 2800 nM.
Nc1ncc(Br)cc1C(=O)c1nc(N2CCC(N)CC2)cs1 [compound 134] was tested, and the Ki was 50 to 500 nM.
Compound COCC#Cc1cnc(N)c(C(=O)c2cccc(N3CCCNCC3)n2)c1 [compound 138] has a Ki of 50 to 500 nM.
Compound Nc1ncc(C(F)(F)F)cc1C(=O)c1cccc(N2CCCNCC2)n1 [compound 140] has a Ki of 50 to 500 nM.
Cc1ccc(N2CCCNCC2)nc1C(=O)c1cccnc1N [compound 209] gave a Ki of 500 to 2800 nM.
Cn1cc(-c2cccc(C(=O)c3cccnc3N)n2)cn1 [compound 292] showed a Ki of over 2800 nM.
CC(C)(C)[C@H](N)COc1ccc(C(F)(F)F)c(C(=O)c2cccnc2N)n1 [compound 422] was tested, and the Ki was 500 to 2800 nM.
Compound CC(C)(CN)CNc1ccc(C(F)(F)F)c(C(=O)c2cccnc2N)n1 [compound 425] has a Ki of 50 to 500 nM.
For Nc1ncccc1C(=O)c1nc(OCCC(N)c2ccccc2)ccc1C(F)(F)F (centres unmarked) [compound 427], the Ki was 50 to 500 nM.
In the case of NCC1CCCC(CNc2ccc(C(F)(F)F)c(C(=O)c3cccnc3N)n2)C1 (centres unmarked) [compound 429], the Ki is reported as 50 to 500 nM.
For CCC1CN(c2ccc(C(F)(F)F)c(C(=O)c3cccnc3N)n2)CCN1 (centres unmarked) [compound 432], the Ki was 50 to 500 nM.
Work on Nc1ncccc1C(=O)c1nc(OCC(N)C2CCOCC2)ccc1C(F)(F)F (centres unmarked) [compound 433] yielded a Ki of over 2800 nM.
CCCC1CN(c2ccc(C(F)(F)F)c(C(=O)c3cccnc3N)n2)CCN1 (centres unmarked) [compound 434] was tested, and the Ki was 50 to 500 nM.
For CCCC1CN(c2ccc(C(F)(F)F)c(C(=O)c3cccnc3N)n2)CCCN1 (centres unmarked) [compound 437], the Ki was 50 to 500 nM.
Work on CCC(N)(COc1ccc(C(F)(F)F)c(C(=O)c2cccnc2N)n1)c1ccccc1 (centres unmarked) [compound 440] yielded a Ki of 50 to 500 nM.
In the case of Nc1ncccc1C(=O)c1nc(N2CCNC(CC3CC3)C2)ccc1C(F)(F)F (centres unmarked) [compound 441], the Ki is reported as 50 to 500 nM.
In the case of Nc1ncccc1C(=O)c1nc(N2CCNC(C3CC3)C2)ccc1C(F)(F)F (centres unmarked) [compound 442], the Ki is reported as 50 to 500 nM.
CC(C)CC(C)(N)CNc1ccc(C(F)(F)F)c(C(=O)c2cccnc2N)n1 (centres unmarked) [compound 443] gave a Ki of 50 to 500 nM.
CCC(N)(CNc1ccc(C(F)(F)F)c(C(=O)c2cccnc2N)n1)c1ccccc1 (centres unmarked) [compound 444] was tested, and the Ki was 50 to 500 nM.
C=Cc1ccc(N2CCN[C@H](c3ccccc3)C2)nc1C(=O)c1cccnc1N [compound 445] gave a Ki of 500 to 2800 nM.
Work on Nc1ncccc1C(=O)c1nc(N2CCN[C@H](c3ccccc3)C2)ccc1C(F)(F)F [compound 447] yielded a Ki of 500 to 2800 nM.
In the case of Nc1ncccc1C(=O)c1nc(N2CCN[C@@H](c3ccccc3)C2)ccc1C(F)(F)F [compound 448], the Ki is reported as 50 to 500 nM.
Work on CC(C)[C@H]1CN(c2ccc(C(F)(F)F)c(C(=O)c3cccnc3N)n2)C[C@H](c2ccccc2)N1 [compound 450] yielded a Ki of 50 to 500 nM.
Compound NCC1CCC(CNc2ccc(C(F)(F)F)c(C(=O)c3cccnc3N)n2)CC1 (centres unmarked) [compound 451] has a Ki of over 2800 nM.
With CC(N)(CNc1ccc(C(F)(F)F)c(C(=O)c2cccnc2N)n1)Cc1ccccc1 (centres unmarked) [compound 452] the Ki was 50 to 500 nM.
For COCC1CN(c2ccc(C(F)(F)F)c(C(=O)c3cccnc3N)n2)CCN1 (centres unmarked) [compound 455], the Ki was 500 to 2800 nM.
Compound CC(C)(C)C1CN(c2ccc(C(F)(F)F)c(C(=O)c3cccnc3N)n2)CCN1 (centres unmarked) [compound 456] has a Ki of over 2800 nM.
CC(C)(O)CC1CN(c2ccc(C(F)(F)F)c(C(=O)c3cccnc3N)n2)CCN1 (centres unmarked) [compound 459] showed a Ki of 50 to 500 nM.
Compound Nc1ncccc1C(=O)c1nc(NCC2CCC(N)CC2)ccc1C(F)(F)F (centres unmarked) [compound 460] has a Ki of 500 to 2800 nM.
With CC(C)C(O)C1CN(c2ccc(C(F)(F)F)c(C(=O)c3cccnc3N)n2)CCN1 (centres unmarked) [compound 461] the Ki was 50 to 500 nM.
For CC[C@@](CN)(CNc1ccc(C(F)(F)F)c(C(=O)c2cccnc2N)n1)c1ccccc1 [compound 462], the Ki was 50 to 500 nM.
In the case of CC(C)(F)CC1CN(c2ccc(C(F)(F)F)c(C(=O)c3cccnc3N)n2)CCN1 (centres unmarked) [compound 464], the Ki is reported as 50 to 500 nM.
Nc1ncccc1C(=O)c1nc(N2CC3CCC(C2)N3)ccc1C(F)(F)F [compound 466] gave a Ki of 50 to 500 nM.
CC(C)C[C@H]1CN(c2ccc(C(F)(F)F)c(C(=O)c3cccnc3N)n2)CC2(CCC2)N1 [compound 471] showed a Ki of 50 to 500 nM.
CC[C@H]1CN(c2ccc(C(F)(F)F)c(C(=O)c3cccnc3N)n2)C[C@H](C(C)C)N1 [compound 473] gave a Ki of 50 to 500 nM.
With C=C(F)c1ccc(N2CCN[C@H](c3ccccc3)C2)nc1C(=O)c1cccnc1N [compound 474] the Ki was 50 to 500 nM.
C[C@H]1CN(c2ccc(C(F)(F)F)c(C(=O)c3cccnc3N)n2)CCN1 [compound 478] showed a Ki of 50 to 500 nM.
CC(C)C[C@H]1CN(c2ccc(C(F)(F)F)c(C(=O)c3cc(Br)cnc3N)n2)CCN1 [compound 479] gave a Ki of 50 to 500 nM.
For CC(C)C[C@H]1CN(c2ccc(C(F)(F)F)c(C(=O)c3cc(Cl)cnc3N)n2)CCN1 [compound 480], the Ki was 50 to 500 nM.
C[C@@H]1CNCCN1c1ccc(C(F)(F)F)c(C(=O)c2cccnc2N)n1 [compound 484] was tested, and the Ki was 50 to 500 nM.
CCc1cnc(N)c(C(=O)c2nc(N3CCN[C@@H](CC(C)C)C3)ccc2C(F)(F)F)c1 [compound 486] gave a Ki of 50 to 500 nM.
Nc1ncc(Cl)cc1C(=O)c1nc(N2CCNC(c3ccccc3)C2)ccc1C(F)(F)F (centres unmarked) [compound 496] showed a Ki of 50 to 500 nM.
Compound Cc1cnc(N)c(C(=O)c2nc(N3CCN[C@@H](CC(C)C)C3)ccc2C(F)(F)F)c1 [compound 499] has a Ki of 50 to 500 nM.
For Cc1sc(N2CCN[C@@H](CC(C)C)C2)nc1C(=O)c1cccnc1N [compound 505], the Ki was 50 to 500 nM.

The compounds below were run against PKC alpha kinase (Homo sapiens, UniProt P17252) (assay: PKC Alpha (coupled enzyme assay)). Settings: 130 μM ATP, 4.5 nM PKC alpha.
Type: biochemical
Protocol: as §1, with “EDTA, 100 μM CaCl2” for “EDTA”
Cc1ccccc1C(=O)N1CCCN(c2cccc(C(=O)c3cccnc3N)n2)CC1 [compound 89] was tested, and the Ki was 500 to 2800 nM.
For Cc1ccc(N2CCCNCC2)nc1C(=O)c1cccnc1N [compound 209], the Ki was 500 to 2800 nM.
With CC(C)(C)[C@H](N)COc1ccc(C(F)(F)F)c(C(=O)c2cccnc2N)n1 [compound 422] the Ki was over 2800 nM.
With C=C(F)c1ccc(N2CCN[C@@H](CC(C)C)C2)nc1C(=O)c1cccnc1N [compound 424] the Ki was under 50 nM.
CC(C)(CN)CNc1ccc(C(F)(F)F)c(C(=O)c2cccnc2N)n1 [compound 425] was tested, and the Ki was 500 to 2800 nM.
For NCC1CCCC(CNc2ccc(C(F)(F)F)c(C(=O)c3cccnc3N)n2)C1 (centres unmarked) [compound 429], the Ki was over 2800 nM.
Compound NCC(CNc1ccc(C(F)(F)F)c(C(=O)c2cccnc2N)n1)c1ccccc1 (centres unmarked) [compound 431] has a Ki of under 50 nM.
In the case of Nc1ncccc1C(=O)c1nc(OCC(N)C2CCOCC2)ccc1C(F)(F)F (centres unmarked) [compound 433], the Ki is reported as over 2800 nM.
CC(C)C[C@H]1CN(c2ccc(-c3ccccc3F)c(C(=O)c3cccnc3N)n2)CCN1 [compound 435] was tested, and the Ki was under 50 nM.
For C=Cc1ccc(N2CCN[C@H](c3ccccc3)C2)nc1C(=O)c1cccnc1N [compound 445], the Ki was 500 to 2800 nM.
With Nc1ncccc1C(=O)c1nc(N2CCN[C@H](c3ccccc3)C2)ccc1C(F)(F)F [compound 447] the Ki was 500 to 2800 nM.
Compound NCC1CCC(CNc2ccc(C(F)(F)F)c(C(=O)c3cccnc3N)n2)CC1 (centres unmarked) [compound 451] has a Ki of over 2800 nM.
For CC(N)(CNc1ccc(C(F)(F)F)c(C(=O)c2cccnc2N)n1)Cc1ccccc1 (centres unmarked) [compound 452], the Ki was 500 to 2800 nM.
Compound CC(C)(C)C1CN(c2ccc(C(F)(F)F)c(C(=O)c3cccnc3N)n2)CCN1 (centres unmarked) [compound 456] has a Ki of over 2800 nM.
With C=C(F)c1ccc(N2CCNC(c3ccccc3)C2)nc1C(=O)c1cccnc1N (centres unmarked) [compound 457] the Ki was under 50 nM.
With Nc1ncccc1C(=O)c1nc(NCC2CCC(N)CC2)ccc1C(F)(F)F (centres unmarked) [compound 460] the Ki was over 2800 nM.
CC[C@](CN)(CNc1ccc(C(F)(F)F)c(C(=O)c2cccnc2N)n1)c1ccccc1 [compound 463] showed a Ki of under 50 nM.
CC(C)(F)CC1CN(c2ccc(C(F)(F)F)c(C(=O)c3cccnc3N)n2)CCN1 (centres unmarked) [compound 464] was tested, and the Ki was 500 to 2800 nM.
C=C(F)c1ccc(N2CCN[C@@H](c3ccccc3)C2)nc1C(=O)c1cccnc1N [compound 475] gave a Ki of under 50 nM.
C=C(F)c1ccc(N2CCNC(c3cccc(Cl)c3)C2)nc1C(=O)c1cccnc1N (centres unmarked) [compound 476] was tested, and the Ki was under 50 nM.
Work on CC[C@@H]1CN(c2ccc(C(F)(F)F)c(C(=O)c3cccnc3N)n2)C[C@H](CC(C)C)N1 [compound 488] yielded a Ki of under 50 nM.
For CC(C)C[C@H]1CN(c2ccc(C(F)(F)F)c(C(=O)c3cccnc3N)n2)C[C@@H](C)N1 [compound 490], the Ki was under 50 nM.
With CCC[C@@H]1CN(c2ccc(C(F)(F)F)c(C(=O)c3cccnc3N)n2)C[C@H](CC(C)C)N1 [compound 494] the Ki was under 50 nM.
Nc1ncccc1C(=O)c1nc(N2CCNC(c3cccc(Cl)c3)C2)ccc1C(F)(F)F (centres unmarked) [compound 497] showed a Ki of under 50 nM.
C=C(F)c1ccc(N2CCNC(C(F)(F)F)C2)nc1C(=O)c1cccnc1N (centres unmarked) [compound 504] showed a Ki of 500 to 2800 nM.
